# Test system: rat 9 L gliosarcoma cells
# Assay: cell proliferation experiment, 9 L gliosarcoma cells
# Assay type: cell-based
# Settings: 10 uM Fisetin for 24 hours, then 48 hours without; 72 hours, dynamic incubation vs constant
# Experimental: Referring now to FIG. 11, another graph illustrating the results of another cell proliferation experiment is depicted. In this experiment, rat 9 L gliosarcoma cells after 72 hours of culture in controlled temperature and gas concentration (constant 37° C. and 5% CO2) are compared with dynamic incubation using the dynamic incubator system 10 (cycling 37° C. and 5% CO2 for 8 hrs., then 38° C. and 5.5% CO2 for 30 min.). The experiment included 10 uM Fisetin. In addition, 100,000 9 L cells were plated in a T75 flask, containing 10 mL of α-MEM medium, with 10 uM Fisetin. In addition, the medium was refreshed after 24 hours without Fisetin, and the cells were then cultured for a 48 additional hours. […] P-values are from t-test compared to control.
compound,measurement,value
O=c1c(O)c(-c2ccc(O)c(O)c2)oc2cc(O)ccc12 [Fisetin],9 L cell numbers,decreases cell numbers

# Reference: patent publication US11667879B2, “Dynamic incubator system and method” (FOREVER LABS, INC., priority 2019, dated 2023)
